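Protocol summary: plate cells (96-well), add compound at 5 concentrations, incubate 48 h, interpolate endpoints linearly. The concentration for 50% growth inhibition is given as GI50. Definition used: TGI = concentration required for complete inhibition of growth.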
Key:
Assay in all cases: inhibition of tumour cell growth, NCI panel, 48 h
[1] = tested on: MCF7 breast
[2] = tested on: ACHN renal
[3] = tested on: NCI-H226 lung
[4] = tested on: U251 CNS
[5] = tested on: HCC-2998 colon
[6] = tested on: SF-268 CNS
[7] = tested on: TK-10 renal
[8] = tested on: OVCAR-3 ovarian
[9] = tested on: UACC-257 melanoma
[10] = tested on: HT29 colon

SMILES	GI50 [1] [µM]	TGI [1] [µM]	GI50 [2] [µM]	TGI [2] [µM]	GI50 [3] [µM]	TGI [3] [µM]	GI50 [4] [µM]	TGI [4] [µM]	GI50 [5] [µM]	TGI [5] [µM]	GI50 [6] [µM]	TGI [6] [µM]	GI50 [7] [µM]	TGI [7] [µM]	GI50 [8] [µM]	TGI [8] [µM]	GI50 [9] [µM]	TGI [9] [µM]	GI50 [10] [µM]	TGI [10] [µM]
COC(=O)c1ccc2c(c1)nc(NC(=O)c1ccccc1)n2CCCc1ccccc1	1.78	> 100	3.75	> 100	11.2	> 100	2.73	> 100	30.6	> 100	3.93	> 100	8.86	> 100	7.29	> 100	6.85	> 100	6.92	> 100
COc1ccc(C2SC(N)=Nc3c2c(C)nn3C(=O)c2ccncc2)cc1OC (centres undefined)	–	> 10	–	> 10	–	> 10	–	> 10	–	> 10	–	> 10	–	> 10	–	> 10	–	> 10	–	> 10
COc1cccc(F)c1C(=O)c1cnc(NC2CCN(S(C)(=O)=O)CC2)nc1N	0.326	> 25	2.16	> 25	3.72	> 18.9	2.6	> 25	4.75	> 25	5.96	> 21.4	4.03	> 25	4.6	19	3.97	15.3	2.54	23.3
Cn1c(I)c(C#CCO[Si](C)(C)C(C)(C)C)c(=O)[nH]c1=O	15	33.2	15.9	29.5	17.1	32.7	17.4	31.9	18.6	34.7	15.9	30.2	16.3	30.2	6.49	16.2	12.9	27.3	20.9	39.7
CC(C)NC(=O)OCc1c(COC(=O)NC(C)C)c(-c2cc[n+](COC(=O)C3CC3)cc2)n2c1CCC2	–	> 100	–	> 100	–	> 100	–	> 100	–	> 100	–	> 100	–	> 100	–	> 100	–	> 100	–	> 100
O=C(Nc1ccc2ncccc2c1)Nc1ccc2ncccc2c1	–	> 100	–	> 100	–	> 100	–	> 100	–	> 100	–	> 100	–	> 100	–	> 100	–	> 100	–	> 100
Nc1ccc([N+](=O)[O-])cc1N=C/C=C/c1ccccc1	6.61	> 100	34.4	> 100	27.8	> 100	6.16	77.5	30.1	> 100	5.91	40.6	33.3	> 100	4.95	26.8	47.7	> 100	5.05	67.1
C=C1C(=O)OC2CC(C)C(C(CC(C)=O)OC(C)=O)=CCC12 (centres undefined)	–	18.2	–	22.4	–	> 66.4	–	29.6	–	24.1	–	74.5	–	31.1	–	20.3	–	37.4	–	22
Nc1nn2cc(F)cnc2c1C(=O)Nc1cncc(F)c1N1CCC(C(=O)N2CCN(C3COC3)CC2)CC1	0.0608	> 100	0.25	–	1.17	4.45	0.656	> 100	0.0464	> 100	1.33	> 100	0.888	> 69.9	0.854	26	1.32	> 76.4	0.452	> 100
CC1(C)C(C#N)C1C1=C(N2CCOCC2)[C@]2(C)C(OC(=O)c3ccccc3)CC[C@@H]2C1 (some centres undefined)	–	> 100	–	> 100	–	> 100	–	> 100	–	> 100	–	> 100	–	> 100	–	> 100	–	> 100	–	> 100
N#Cc1c(N)nc(N2CCOCC2)c(C#N)c1-c1ccncc1	34.5	> 100	40.7	> 100	75.9	> 100	> 100	> 100	13.3	64.3	> 100	> 100	72.4	> 100	36.4	> 100	46.6	> 100	> 100	> 100
COc1cccc(C2CC(C)(O)Oc3cc4c(cc32)OCO4)c1O (centres undefined)	–	> 66.5	–	> 100	–	57.9	–	70.4	–	51.2	–	> 91.2	–	> 100	–	42.2	–	> 100	–	50.6
N#Cc1c(NC(=O)NCc2ccccc2)sc2c1CCCCC2	0.353	> 100	0.629	> 100	1.05	> 28.8	0.535	> 71.2	1.77	> 28.5	1.52	> 100	5.92	> 100	0.346	1.61	1.5	> 100	0.398	> 100
COc1cccc(CC(C)=C(c2ccc(OCCN(C)C)cc2)c2ccc(OCCN(C)C)cc2)c1	0.926	3.85	1.04	3.35	4.8	10.4	0.903	2.42	0.895	4.92	4.03	8.69	5.43	10.3	1.18	3.42	4.06	8.8	0.706	1.91
C=C(Cl)C(=CCl)CCC(Br)C(C)(C)Cl (mixture of isomers)	–	> 10	–	> 10	–	> 10	–	> 10	–	> 10	–	> 10	–	> 10	–	> 10	–	> 10	–	> 10

Source: PubChem BioAssay (NCI)
